{
  "source": "patent US11930822B2",
  "about": "“Methylobacterium compositions for fungal disease control” (priority 2017, dated 2024)",
  "key": {"[1]": {"test_system": "P. torulosum, P. oopapillum, P. sylvaticum and P. lutarium", "assay": "Greenhouse Pythium assay in soybean, consortium of 4 Pythium species", "format": "in vivo, Pythium spp.", "experimental": "(§1) A greenhouse experiment was conducted is to evaluate the ability of Methylobacterium strains to suppress Pythium disease in soybean. Methylobacterium treatments were compared to treatments with metalaxyl at various rates to determine if Methylobacterium strains can provide protection beyond and in addition to the level of protection provided by commonly used agronomic seed treatments. The experiment was designed to allow for growth of plants for in the presence of moderate levels of Pythium. spp. to determine impacts on emergence, % dead seed and root rot incidence and severity.\n(§2) Pythium inoculants were prepared by mixing 453 g of parboiled rice and 323 mL of distilled water, placing the rice in a vented autoclavable plastic bag, and autoclaving 2×40 minutes with each cycle separated by 24 hours. Rice was inoculated with 3-4-day-old Pythium cultures and incubated for 7-10 days at 23 °C in the dark. The inoculum was then dried for 2 days.\n(§3) A 20 ml layer of rice inoculum is placed on soil in cups and additional soil layered on top of the inoculum to position the inoculum approximately 2-3 cm below the seeds to be planted. Water is added to the soil and 10 seeds are planted in each cup. Domes are placed over the cups and the cups are placed in growth chambers with temperature set at 230C, and on a diurnal cycle of 16 h light and 8 h dark. The seeds are incubated for 14 days at 23 °C. For experiments to assess activity of Methylobacterium strains against a consortium of 4 Pythium species, the seeds are incubated for 14 days at 130C and for an additional 7 days at 23 °C.\n(§4) Plants are rated when the first trifoliate is fully emerged and open to determine total plant weight, number of seedlings and number of dead seeds. Disease incidence is evaluated as percent plants with rotted roots and disease severity as percent rotted root tissue for each seedling.\nResults from inoculation with a consortium of 4 Pythium species at alternating temperature of 130C and 230C are shown in Tables 35-36 below. The four species, which are all important pathogens of corn and soybean, are P. torulosum, P. oopapillum, P. sylvaticum and P. lutarium."}, "[2]": {"test_system": "Pythium lutarium", "assay": "Greenhouse Pythium assay in soybean, Pythium lutarium", "format": "in vivo", "experimental": "as §1, §2, §3, §4"}, "[3]": {"test_system": "Pythium sylvaticum", "assay": "Greenhouse Pythium assay in soybean, Pythium sylvaticum", "format": "in vivo", "experimental": "as §1, §2, §3, §4"}},
  "data": [
    {"smiles": "COCC(=O)N(c1c(C)cccc1C)C(C)C(=O)OC", "note": "(stereo not drawn) [metalaxyl]", "values": [
      {"measurement": "Mean Dead Seed (%)", "setting": "[1]; Table 35, 0.35 Fl. oz/cwt", "result": 6, "unit": "%"},
      {"measurement": "Mean Emergence (%)", "setting": "[1]; Table 35, 0.35 Fl. oz/cwt", "result": 94, "unit": "%"},
      {"measurement": "Mean Dead Seed (%)", "setting": "[1]; Table 35, 0.75 Fl. oz/cwt", "result": 2, "unit": "%"},
      {"measurement": "Mean Emergence (%)", "setting": "[1]; Table 35, 0.75 Fl. oz/cwt", "result": 100, "unit": "%"},
      {"measurement": "Mean Dead Seed (%)", "setting": "[1]; Table 35, 1.25 Fl. oz/cwt", "result": 2, "unit": "%"},
      {"measurement": "Mean Emergence (%)", "setting": "[1]; Table 35, 1.25 Fl. oz/cwt", "result": 94, "unit": "%"},
      {"measurement": "Root Rot INC (%)", "setting": "[1]; Table 36, 0.35 Fl. oz/cwt", "result": 94, "unit": "%"},
      {"measurement": "Root Rot Severity (%)", "setting": "[1]; Table 36, 0.35 Fl. oz/cwt", "result": 13, "unit": "%"},
      {"measurement": "Root Rot INC (%)", "setting": "[1]; Table 36, 0.75 Fl. oz/cwt", "result": 100, "unit": "%"},
      {"measurement": "Root Rot Severity (%)", "setting": "[1]; Table 36, 0.75 Fl. oz/cwt", "result": 12, "unit": "%"},
      {"measurement": "Root Rot INC (%)", "setting": "[1]; Table 36, 1.25 Fl. oz/cwt", "result": 94, "unit": "%"},
      {"measurement": "Root Rot Severity (%)", "setting": "[1]; Table 36, 1.25 Fl. oz/cwt", "result": 9, "unit": "%"},
      {"measurement": "% Dead Seed", "setting": "[2]; Table 33, 0.75 Fl. oz/cwt", "result": 3, "unit": "%"},
      {"measurement": "Mean Emergence (%)", "setting": "[2]; Table 33, 0.75 Fl. oz/cwt", "result": 97, "unit": "%"},
      {"measurement": "% Dead Seed", "setting": "[2]; Table 33, 1.25 Fl. oz/cwt", "result": 67, "unit": "%"},
      {"measurement": "Mean Emergence (%)", "setting": "[2]; Table 33, 1.25 Fl. oz/cwt", "result": 93, "unit": "%"},
      {"measurement": "Mean Root Rot Incidence (%)", "setting": "[2]; Table 34, 0.35 Fl. oz/cwt", "result": 95, "unit": "%"},
      {"measurement": "Mean Root Rot Severity (%)", "setting": "[2]; Table 34, 0.35 Fl. oz/cwt", "result": 13, "unit": "%"},
      {"measurement": "Mean Root Rot Incidence (%)", "setting": "[2]; Table 34, 0.75 Fl. oz/cwt", "result": 95, "unit": "%"},
      {"measurement": "Mean Root Rot Severity (%)", "setting": "[2]; Table 34, 0.75 Fl. oz/cwt", "result": 10, "unit": "%"},
      {"measurement": "Mean Root Rot Incidence (%)", "setting": "[2]; Table 34, 1.25 Fl. oz/cwt", "result": 93, "unit": "%"},
      {"measurement": "Mean Root Rot Severity (%)", "setting": "[2]; Table 34, 1.25 Fl. oz/cwt", "result": 11, "unit": "%"},
      {"measurement": "% Dead Seed", "setting": "[3]; Table 31, 0.35 Fl. oz/cwt", "result": 18, "unit": "%"},
      {"measurement": "Emergence", "setting": "[3]; Table 31, 0.35 Fl. oz/cwt", "result": 82},
      {"measurement": "Mean Emergence (%)", "setting": "[3]; Table 32, 0.35 Fl. oz/cwt", "result": 78, "unit": "%"},
      {"measurement": "Mean Root Rot Severity (%)", "setting": "[3]; Table 32, 0.35 Fl. oz/cwt", "result": 17, "unit": "%"},
      {"measurement": "Mean Emergence (%)", "setting": "[3]; Table 32, 0.75 Fl. oz/cwt", "result": 92, "unit": "%"},
      {"measurement": "Mean Root Rot Severity (%)", "setting": "[3]; Table 32, 0.75 Fl. oz/cwt", "result": 18, "unit": "%"},
      {"measurement": "Mean Emergence (%)", "setting": "[3]; Table 32, 1.25 Fl. oz/cwt", "result": 78, "unit": "%"},
      {"measurement": "Mean Root Rot Severity (%)", "setting": "[3]; Table 32, 1.25 Fl. oz/cwt", "result": 21, "unit": "%"}
    ]}
  ]
}
